Paper PMC4811503, “A method for quantification of exportin-1 (XPO1) occupancy by Selective Inhibitor of Nuclear Export (SINE) compounds” (Oncotarget, 2015)
Where two headings read alike, the source gives them in different places.

Columns and labels:
XPO1 [1] = target: T1, XPO1 (Mus musculus, UniProt Q6P5F9); experiment: XPO1 occupancy assay in PBMCs from mice dosed orally with selinexor; format: in vivo
T1 construct: the blood from the mice for each dose (n = 4) was pooled and PBMCs were immediately isolated; from tissue; host or cells: PBMCs from pooled blood of orally dosed mice
T1 sequence (Q6P5F9 whole entry): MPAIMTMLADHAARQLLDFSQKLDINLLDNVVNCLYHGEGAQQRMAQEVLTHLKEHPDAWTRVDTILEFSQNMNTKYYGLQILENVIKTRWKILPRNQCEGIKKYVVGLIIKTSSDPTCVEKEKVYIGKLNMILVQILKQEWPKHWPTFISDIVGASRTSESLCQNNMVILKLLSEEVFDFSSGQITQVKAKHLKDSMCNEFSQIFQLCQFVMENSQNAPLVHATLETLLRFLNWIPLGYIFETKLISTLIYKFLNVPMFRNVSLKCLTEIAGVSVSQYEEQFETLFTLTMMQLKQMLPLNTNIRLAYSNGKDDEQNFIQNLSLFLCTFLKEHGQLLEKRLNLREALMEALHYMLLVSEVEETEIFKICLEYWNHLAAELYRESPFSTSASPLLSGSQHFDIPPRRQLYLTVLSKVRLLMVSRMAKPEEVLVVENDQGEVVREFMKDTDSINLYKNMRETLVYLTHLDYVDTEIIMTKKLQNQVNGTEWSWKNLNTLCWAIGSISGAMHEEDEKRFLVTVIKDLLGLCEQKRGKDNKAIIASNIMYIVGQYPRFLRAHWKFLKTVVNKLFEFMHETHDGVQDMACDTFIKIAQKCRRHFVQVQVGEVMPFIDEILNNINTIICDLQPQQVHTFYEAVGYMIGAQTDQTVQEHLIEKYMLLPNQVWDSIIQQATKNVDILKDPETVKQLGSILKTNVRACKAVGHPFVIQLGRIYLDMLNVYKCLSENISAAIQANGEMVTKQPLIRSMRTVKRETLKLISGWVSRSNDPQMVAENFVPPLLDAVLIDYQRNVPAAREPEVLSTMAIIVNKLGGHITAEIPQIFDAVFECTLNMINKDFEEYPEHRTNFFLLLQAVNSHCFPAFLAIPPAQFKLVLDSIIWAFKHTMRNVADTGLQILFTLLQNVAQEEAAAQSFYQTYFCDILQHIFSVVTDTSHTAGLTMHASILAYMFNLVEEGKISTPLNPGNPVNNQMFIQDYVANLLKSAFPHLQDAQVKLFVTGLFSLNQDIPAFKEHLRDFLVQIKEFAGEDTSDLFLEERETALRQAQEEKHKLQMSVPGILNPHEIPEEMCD
Procedure: In order to have enough PBMCs to assay, the blood from the mice for each dose (n = 4) was pooled and PBMCs were immediately isolated. Mouse PBMCs were incubated with 1 nM b-LMB for 1.5 hours ex vivo then collected and prepared for the XPO1 occupancy assay.
Using similar conditions, we sought to determine the duration of XPO1 occupancy by SINE compounds in mice. […] The mice were then terminally bled at 4, 24, 36, 48, 60, 72, and 96 hours post dose (n = 4 mice per dose per time point). Blood for each dose at each time point was pooled and PMBCs were isolated. Mouse PBMCs were incubated with 1 nM b-LMB for 1.5 hours ex vivo before being processed for the XPO1 occupancy assay. Both 3 and 10 mg/kg had time-dependent increases in the ratio of free-fraction XPO1, with 50% XPO1 occupancy being sustained for up to 72 hours post-treatment (Figure 5B).
Human donor blood collected in Vacutainer® EDTA tubes (BD) (BioreclamationIVT) was purchased for peripheral blood mononuclear cells (PBMCs) isolation. […] Mouse whole blood was collected in Vacutainer® EDTA tubes (BD) and pooled from each group for each time point. Human and mouse PBMCs were separated by Ficoll (GE Healthcare) gradient. Human PMBCs were cryogenically preserved in Recovery™ Cell Culture Freezing Medium (Gibco). […] Freshly isolated PBMCs from control or selinexor-treated mice were treated ex vivo with 1 nM b-LMB for 1.5 hours prior to collection and processing for the XPO1 occupancy assay.
(§1) Cells were collected, washed with PBS, and lysed with RIPA Buffer (Thermo Scientific) with protease inhibitors [Complete Ultra Tablets, Mini, EDTA-free, Easy pack (Roche), PhosStop Easy (Roche)]. A portion of the lysate was reserved (input) while the rest was added to washed Dynabeads MyOne Streptavidin T1 (Invitrogen) with RIPA Buffer. Samples were incubated overnight with constant rotation at 4°C. Beads were then washed 5 times with modified RIPA (150 mM NaCl, 50 mM Tris, 1% NP-40, 0.1% Na deoxycholate, 1 mM EDTA, pH 7.8). The reserved portion of lysates (input) and the beads were each mixed with Protein Simple buffer (Protein Simple), DTT (Invitrogen), and fluorescent standards (Protein Simple), then boiled at 95°C for 10 min. Eluates and inputs were analyzed using a capillary western method (Peggy Sue; Protein Simple) with the following primary antibodies: XPO1 (Santa Cruz) and β-actin (Santa Cruz). Capillary westerns were performed by SBH Sciences (Natick, MA). Peak areas corresponding to the protein molecular weight of XPO1 and actin were compared for sample inputs, while the ratio of XPO1 peak areas in eluate to input (ratio of bound or free-fraction XPO1) versus compound concentration were used in XLFit model 205 to calculate 50% and 90% occupancy curves.

HCT-116 = experiment: MTT cytotoxicity assay; format: cell-based; details: Homo sapiens
MV-4–11 = experiment: MTT cytotoxicity assay; format: cell-based; details: Homo sapiens, MV4-11, read-out: Selinexor IC50 (μM)
HEL = experiment: MTT cytotoxicity assay; format: cell-based; details: Homo sapiens, read-out: Selinexor IC50 (μM)
THP-1 = experiment: MTT cytotoxicity assay; format: cell-based; details: Homo sapiens, read-out: Selinexor IC50 (μM)
UCH1 = experiment: MTT cytotoxicity assay; format: cell-based; details: read-out: Selinexor IC50 (μM)
UCH2 = experiment: MTT cytotoxicity assay; format: cell-based; details: read-out: Selinexor IC50 (μM)
LS174T = experiment: MTT cytotoxicity assay; format: cell-based; details: Homo sapiens, read-out: Selinexor IC50 (μM)
[2] = humans; clinical PK analysis, no reference given; cited from earlier work
XPO1 [3] = target: XPO1 (Homo sapiens, UniProt O14980); experiment: XPO1 occupancy assay in human PBMCs treated ex vivo; format: cell-based; parameters: performed ex vivo on PBMCs isolated from pooled healthy donor blood; host or cells: human PBMCs from pooled healthy donor blood, fresh or revived after cryopreservation; details: then 1 nM b-LMB 1 hour
Chain of XPO1 (Homo sapiens, UniProt O14980) (O14980 whole entry): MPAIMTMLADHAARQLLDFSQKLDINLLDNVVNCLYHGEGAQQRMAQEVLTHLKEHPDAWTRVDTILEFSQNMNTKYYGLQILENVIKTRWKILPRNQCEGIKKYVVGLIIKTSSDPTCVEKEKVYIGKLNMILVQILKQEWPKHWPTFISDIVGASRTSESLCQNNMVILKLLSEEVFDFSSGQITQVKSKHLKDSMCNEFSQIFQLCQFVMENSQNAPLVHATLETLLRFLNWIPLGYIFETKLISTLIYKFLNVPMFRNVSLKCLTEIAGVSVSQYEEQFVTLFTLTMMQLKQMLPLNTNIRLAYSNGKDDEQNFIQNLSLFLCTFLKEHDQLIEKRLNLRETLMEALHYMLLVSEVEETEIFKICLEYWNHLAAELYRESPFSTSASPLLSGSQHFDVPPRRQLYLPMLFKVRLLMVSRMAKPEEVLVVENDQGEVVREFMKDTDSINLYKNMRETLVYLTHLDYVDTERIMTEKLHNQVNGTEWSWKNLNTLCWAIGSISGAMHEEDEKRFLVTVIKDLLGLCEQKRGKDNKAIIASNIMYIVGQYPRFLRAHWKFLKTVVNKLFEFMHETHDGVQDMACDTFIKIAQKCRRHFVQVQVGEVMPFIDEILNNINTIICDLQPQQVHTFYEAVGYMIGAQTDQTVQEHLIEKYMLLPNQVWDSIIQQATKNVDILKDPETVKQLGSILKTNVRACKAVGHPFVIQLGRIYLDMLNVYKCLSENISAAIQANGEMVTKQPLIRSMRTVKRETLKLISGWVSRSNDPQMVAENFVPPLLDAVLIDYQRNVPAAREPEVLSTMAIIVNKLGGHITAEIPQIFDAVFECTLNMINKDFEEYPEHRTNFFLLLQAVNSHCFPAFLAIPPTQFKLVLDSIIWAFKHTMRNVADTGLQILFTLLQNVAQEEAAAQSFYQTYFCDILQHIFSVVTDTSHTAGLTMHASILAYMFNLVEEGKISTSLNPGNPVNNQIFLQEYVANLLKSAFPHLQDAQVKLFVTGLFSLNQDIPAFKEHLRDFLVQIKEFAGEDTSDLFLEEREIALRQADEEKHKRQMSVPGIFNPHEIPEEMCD
Procedure: as §1

[4] = single oral dose, 4 hours post-dosing

O=C(/C=C\n1cnc(-c2cc(C(F)(F)F)cc(C(F)(F)F)c2)n1)NNc1cnccn1 [Selinexor, selinexor]
time at which full saturation of XPO1 was achieved (XPO1 [1]; single oral dose of 3 mg/kg): 4 to 24 h | time for which 50% XPO1 occupancy is sustained post-treatment (XPO1 [1]; single oral dose of 3 and 10 mg/kg): up to 72 hours | amount of selinexor required to occupy 50% of XPO1 (XPO1 [1]; [4]): 1.84 mg/kg | amount of selinexor to achieve 90% XPO1 occupancy (XPO1 [1]; [4]): > 10 mg/kg | IC50 (HCT-116; 72 hours, read-out: IC50): 0.05 µM | IC50 (HCT-116; read-out: Selinexor IC50 (μM), MTT): 0.05 µM | IC50 (MV-4–11): 0.02 µM | IC50 (HEL): 0.35 µM | IC50 (THP-1): 1.06 µM | IC50 (UCH1): 7 µM | IC50 (UCH2): 30 µM | IC50 (LS174T): > 10 µM | Tmax [2]: ~4 h | near complete plasma clearance by (time post-dose) [2]: ~24 h | 90% Occupancy (XPO1 [3]; fresh human PBMCs, selinexor 1 hour): > 0.5 µM | 90% Occupancy (XPO1 [3]; human PBMCs revived from cryopreservation, selinexor 4 hours, washed): 0.04 µM
